# In patent publication US20230158177A1, “HYPOXIA-TARGETING CONTRAST AGENT AND METHODS OF USE THEREOF” (Arizona Board of Regents on behalf of Arizona State …, priority 2021, published 2023):
# “And” between values parts separate entries of the source, which are not always exact repeats. Equal entries are not always repeated.
# Tests used:
# [1] = Relaxometry: relaxivity in a water phantom at 7T; assay type: physicochemical; conditions: for longitudinal relaxivity r1 / transverse relaxivity r2: in water; for longitudinal relaxivity r1: slope of linear fit of R1 vs [C]; for transverse relaxivity r2: slope of linear fit of R2 vs [C]
# Protocol: The basic paramagnetic properties i.e., relaxivity of chelated DFOB (FOB) and FOBNI was measured at 7T using a preclinical Bruker MRI scanner. The relaxivity of the two molecules were studied using a home-made 3D printed phantom capable of controlling temperature. The phantoms contained nine different concentrations of each contrast agents in water from 0-4 mM for FOB and 0-10 mM for FOBNI. The imaging parameters for this study were as matrix size 64×64, the field of view 2.56 cm×2.56 cm and TR=205-5000 ms, […] for the T1 map and TR=5000 ms, TE=8-200 ms for the T2 map. The MR images were later analyzed in a homemade MATLAB code to calculate the T1 and T2 values for each pixel. Using the T1 and T2 values for each concentration and Ri=[C]ri+Ri^0 equation the relaxivity values were calculated by a linear fit on Ri and [C]. Where Ri (i=1 or 2) is the relaxation rate of the tissue, [C] is the concentration of the contrast agent, ri is the relaxivity of the contrast agent and the Ri^0 is the intrinsic relaxation rate of the water. FIG. 7A and FIG. 7B show the T1 and T2 maps for the phantom and a concentration map indicating the concentrations of FOB and FOBNI in each respective well.
# FIG. 8 represents the result of the linear fit for R1 and R2 for the two contrast agents. […] Using the linear fit function, the following equations are acquired for relaxation rate vs concentration, R1=(2.06±0.06)[C]+(0.49±0.04) (in red) and R2=(2.75±0.06)[C]+(3.75±0.08) (in gray) for FOB and R1=(0.51±0.1)[C]+(0.44±0.03) (in red) and R2=(4.51±0.14)[C]+(3.87±0.19) (in gray) for FOBNI.
# [2] = test system: 3T3 fibroblast cells; assay: In vitro hypoxia-targeting study: T1 and T2 MRI of cell pellets; assay type: cell-based; conditions: for Relaxation time T1 of exposed cell pellets / Relaxation time T2 of exposed cell pellets: 7 T; for contrast agent concentration in cell pellet: from the relaxivity equation for transverse relaxation rate
# Protocol: The in vitro study for hypoxia-targeting efficiency of FOBNI was assessed in a hypoxia chamber glove box capable of adjusting oxygen concentration, temperature and CO2 and equipped with a small centrifuge unit. The 3T3 fibroblast cells were grown in a T-150 flask once they reached the confluency of 80% divided equally to five T-75 flasks to ensure the flasks were identical before being exposed to contrast agents and different conditions. The cells were supplied with Dulbecco's Modified Eagle Medium (DMEM), fetal bovine serum (10%), and penicillin/streptomycin (1%). Once the five flasks reached the confluency of 75-80% the growth media were replaced with the following mediums.
# Two flasks were supplied with fresh culture media supplemented with DFOB, two with fresh media and FOBNI and one with just fresh media as control. The control and one FOB and one FOBNI labeled flasks were placed in a regular cell incubator at 21% O2, 5% CO2 and 37° C. and the remaining two flasks were transferred to the hypoxia chamber at 1% O2, 5% CO2 and 37° C. All the samples were kept at defined conditions for 4 h before removing the media. The cells were washed three times with phosphate buffered saline (PBS) at the end of four hour incubation and were detached by being exposed to trypsin for 5 min. The collected cell mixtures in Eppendorf Tube were centrifuged at 1000 rpm for 5 min and the medium was removed. Afterwards, the cell pellets were suspended in PBS and again centrifuged three times to ensure the removal of unbound or free DFOB or FOBNI. Finally, to keep the cell pellets intact the tubes were filled with low temperature liquid agar and placed in the fridge to solidify.
# MR Imaging—The samples were imaged using a rat brain surface coil at 7 T. The voxel wise T1 and T2 maps of the samples were calculated using MATLAB based software and the images from Variable Repetition Time Fast Spin Echo (VTR) Sequence and multi-echo spin echo sequence, respectively. The VTR sequence was performed with TE=8 ms and thirteen TR values ranging between (205-5000 ms). The images in multi-echo sequence were acquired with TE ranging between 8-200 ms and TR=5000 ms. The field of view was 2.56 cm×2.56 cm and the matrix size of 64×64 for all the experiments. The ROI analysis to calculate the T1 and T2 values for cell pellets were performed in MATLAB.
# Statistics—All results are reported as means±standard deviations (SD). For statistical comparisons unpaired t-test was employed and confidence intervals α=0.05, 95% was used between specific means.
# [3] = test system: NIH-3T3 fibroblast cells; assay: Cytotoxicity: cell viability assay using Alamar blue; assay type: cell-based; conditions: for cell viability (Alamar blue): hypoxic and normoxic conditions
# Protocol: To study the cytotoxicity of DFOB, NIH-3T3 fibroblast cells were used. The cells were exposed to different concentrations of DFOB for 4, 8, and 24 h under either hypoxic or normoxic conditions. Afterwards, the cells were washed with PBS and exposed to 10% Alamar blue in media for 4 h in their respective conditions. To assess the viability of the cells 100 µl of the exposed Alamar blue was collected in a 96-well plate using the spectrophotometer the absorbance was measured at 570 nm and 600 nm excitations and the viability of the cells was calculated.
# Cytotoxicity assay for FOBNI was a viability test using Alamar blue. The results are summarized in FIG. 5 for normoxic conditions and FIG. 6 for hypoxic conditions. […] The increased viability, which is a translation of reduced Alamar blue in control samples of 8 h and 24 h can be attributed to the increased number of the cells in the control wells. After seeding the cells the cell number in the control wells could increase and that can influence the amount of reduced compound in absorbance test.
# [4] = mouse; cited from earlier work
# [5] = cited from earlier work
# [6] = hypoxic (H), 1% O2, 4 h exposure
# [7] = normoxic (N), 21% O2, 4 h exposure
Molecule,longitudinal relaxivity r1 [1],transverse relaxivity r2 [1],"Relaxation time T1 of exposed cell pellets [2, 6]","Relaxation time T2 of exposed cell pellets [2, 6]",contrast agent concentration in cell pellet ([2]; hypoxic),"Relaxation time T1 of exposed cell pellets [2, 7]","Relaxation time T2 of exposed cell pellets [2, 7]",contrast agent concentration in cell pellet ([2]; normoxic),"cell viability (Alamar blue) ([3]; 100-400 μM, up to 24 h exposure, control of the 4 h exposure used, n=3)","cell viability (Alamar blue) ([3]; after 8 h and 24 h of exposure, control of each time point used)",cytocompatibility (cell viability assay) ([3]; up to 8 h of direct exposure to the cells),decrease in r1 value compared to FOB [1],"increase in pellet concentration, FOBNI vs FOB ([2]; hypoxic condition)","cellular uptake after addition of nitroimidazole moiety ([2]; vs FOB, seen in T2 values under normoxic conditions)",circulation half-time [4],cell permeability [5]
"CC(=O)N([O-])CCCCCNC(=O)CCC(=O)N([O-])CCCCCNC(=O)CCC(=O)N([O-])CCCCCN.[Fe+3] [FOB, Feroxamine B, reference compound]",2.06 ± 0.06 L/s/mmol,2.75±0.06,2002 ± 143 ms,75.5 ± 15.0 ms,3.45 mM,2280 ± 222 ms,89.9 ± 11.21 ms and 89.9 ± 11.2 ms,2.67 mM,–,–,–,–,–,–,–,–
Feroxamine B conjugate of 2-nitroimidazole [FOBNI],0.51 L/s/mmol and 0.51 ± 0.1 L/s/mmol,4.51±0.14,1909 ± 162 ms,32.4 ± 3.4 ms,5.98 mM,1793 ± 165 ms,59.3 ± 9.3 ms,2.88 mM,no significant reduction,significant drop in cell viability,cytocompatibility,about 75%,1.73 fold,increased the cellular uptake,–,–
"CC(=O)N(O)CCCCCNC(=O)CCC(=O)N(O)CCCCCNC(=O)CCC(=O)N(O)CCCCCN [DFOB, Deferoxamine B]",–,–,–,–,–,–,–,–,–,–,–,–,–,–,about 5 min,very low cell permeability
